The target in the test is Dual leucine zipper kinase (MAP3K12) (Homo sapiens). As to the kind of experiment: Binding affinity to DLK (unknown origin) assessed as inhibition constant.

Each structure is given as a SMILES string.

As for `CC(=O)N1CCC(c2cc(Nc3cc(C(F)(F)F)ccn3)nc(N3CCC(F)(F)C3)n2)CC1`, the inhibitory constant (Ki) is 33 nM.

For the molecule `CC(C)n1nc(Nc2cc(C(F)(F)F)ccn2)cc1C1CCNCC1`, the Ki came out at 145 nM.

A word on the Ki: it is a dissociation constant, usually derived from enzyme kinetics or from competition with a known ligand.

For the origin of these results see BindingDB's records for doi:10.1016/j.ejmech.2023.115404 (Southwest Jiaotong University, 2023).
